Experimental data from ChEMBL document CHEMBL1137931, “Anti-AIDS agents. Part 58: synthesis and anti-HIV activity of 1-thia-di-O-(-)-camphanoyl-(+)-cis-khellactone (1-thia-DCK) analogues” (Bioorg Med Chem Lett, 2004).

What was measured:
H9 [1] = experiment: Concentration required to inhibit uninfected H9 cell growth by 50%; format: functional, cell-based; details: Homo sapiens
[2] = Therapeutic index expressed as IC50/EC50; details: read-out: TI
H9 [3] = experiment: Concentration required to inhibit HIV-1 replication by 50% in acutely infected H9 lymphocytes; NA means not active; format: functional, cell-based, Homo sapiens
H9 [4] = experiment: Concentration required to inhibit HIV-1 replication by 50% in acutely infected H9 lymphocytes; format: functional, cell-based; details: Homo sapiens

SMILES | IC50 (H9 [1]) | selectivity ratio [2] | EC50 (H9 [3]) | EC50 (H9 [4])
Cc1cc(=O)sc2c3c(ccc12)OCC=C3 | 478 µM | 62.3 | – | –
Cc1cc(=O)sc2c3c(ccc12)OC(C)(C)[C@H](O)[C@@H]3O | 302 µM | – | Not Active | –
Cc1cc(=O)sc2c3c(ccc12)OC(C)(C)C=C3 | 339 µM | – | Not Active | –
Cc1cc(=O)sc2c3c(ccc12)OC(C)(C)[C@H](OC(=O)C12CCC(C)(C(=O)O1)C2(C)C)[C@@H]3OC(=O)C12CCC(C)(C(=O)O1)C2(C)C (stereo not given in full) | 169 µM | – | – | 120 µM
Cc1cc(=O)sc2c3c(ccc12)OC[C@H](O)[C@@H]3O | 340 µM | 11.1 | – | –
CC1(C)Oc2ccc3ccc(=O)oc3c2[C@@H](OC(=O)C23CCC(C)(C(=O)O2)C3(C)C)[C@H]1OC(=O)C12CCC(C)(C(=O)O1)C2(C)C (stereo not given in full) | – | 137000 | – | 0.000256 µM
Cc1cc(=O)sc2c3c(ccc12)OC[C@H](OC(=O)C12CCC(C)(C(=O)O1)C2(C)C)[C@@H]3OC(=O)C12CCC(C)(C(=O)O1)C2(C)C (stereo not given in full) | 194 µM | 62.3 | – | –
Cc1cn([C@H]2C[C@H](N=[N+]=[N-])[C@@H](CO)O2)c(=O)[nH]c1=O [ZIDOVUDINE] | – | – | – | 0.045 µM
